These results are taken from patent US8796264B2, “2-piperazin-1-yl-4H-1,3-benzothiazin-4-one derivatives and their use for the treatment of mammalian infections” (Ecole Polytechnique Federale de Lausanne (EPFL), priority 2010, dated 2014).

The subject of data set [1] is M. tuberculosis strain H37Rv. Briefly: In vivo efficacy in the acute murine TB model. Also on record: species or system mice. Conditions: for Log of CFU lungs: 4 weeks treatment, intragastric 5 times a week; for Log of CFU lungs / Medium longevity (days) M ± SEM: compounds and BTZ043 50 mg/kg, isoniazid 25 mg/kg; for Result of treatment, macroscopic condition of the lungs: treatment for prescribed time.

The next data set has as its system M. tuberculosis H37Rv. Briefly: In vitro inhibitory activity, resazurin reduction assay (MIC99). In kind it is cell-based, Mycobacterium tuberculosis. The note with it: for MIC: Mycobacterium tuberculosis, H37RV, resazurin reduction assay (MIC99), read-out: typical MIC values, M. tuberculosis H37Rv; for MIC used for the selectivity index: strain not stated. A general note: The colour change of resazurin is a common sign of viable cells or microbes.

The test system of a further data set is M. smegmatis. Described as above. The data set is classed as cell-based, Mycobacterium smegmatis. The note with it: Mycolicibacterium smegmatis, read-out: typical MIC values, M. smegmatis.
Data set [2] concerns Corynebacterium glutamicum ATCC13032. Briefly: In vitro inhibitory activity against actinobacteria (MIC). The data set is classed as cell-based. Conditions: read-out: typical MIC values, Corynebacterium glutamicum ATCC13032.
The subject of another data set is A549 cells. Nature of the data set: Cytotoxicity TC50, resazurin reduction assay. In kind it is cell-based, human. The note with it: 72 h incubation. On the procedure:
(§1) The selectivity index (SI) of a compound provides a good indication of the potential tolerability of a drug candidate. […] The TC50 of PBTZ169 and BTZ043 were established using two human cell lines, the hepatocyte line HepG2 and the pneumocyte line A549, using the resazurin reduction assay after incubation with varying amounts of the compounds for 72 h. […] The respective MICs were 1 and 2 ng/ml for PBTZ169 and BTZ043. […] In clinical terms, PBTZ169 should be safer and better tolerated than BTZ043.

For the next data set, the system named is HepG2 cells. Nature of the data set: Cytotoxicity TC50, resazurin reduction assay. The data set is classed as cell-based, human. Conditions: 72 h incubation. On the procedure: as §1
Data set [3] in a line: Acute toxicity after administration per os. The note with it: mouse, in vivo, mice. The procedure: The compounds of the invention are non-toxic after administration per os of doses ranging up to 2000 mg/kg. The compound was well tolerated by animals in the first 24 hours after introduction. […] There were no cases of animal death. LD50 for compounds (2) and (18) is >2000 mg/kg.

A short description of data set [4]: Chemical stability in simulated gastric fluid. The note with it: 5 μM, after 60 minutes. In kind it is physicochemical.
Data set [5] can be described thus: Intrinsic clearance in liver microsomes. The procedure:
(§2) Next, PBTZ169 and BTZ043 were incubated at a concentration of 1 μg/mL with 0.1 mg of human or mouse liver microsomes (Invitrogen) in order to measure their intrinsic clearance. The relative amounts of the original compound remaining over time were determined by HPLC.
A general note: Liver microsomes are a subcellular fraction often used to study metabolism.

A further data set can be described thus: in vitro. Conditions: human, plasma. On the procedure:
as §2

In data set [6] the test system is M. tuberculosis strain H37Rv. Briefly: In vivo efficacy in the chronic murine TB model. Also on record: species or system mice. The note with it: for Reduction of the CFU load in the lungs and spleens compared to treatment with BTZ043: 50 mg/kg by gavage once daily, six-times/week, 4 weeks.
In data set [7] the test system is NfnB-overproducing mutant MN39. Nature of the data set: Susceptibility of the NfnB-overproducing mutant MN39. In kind it is cell-based, Mycobacterium smegmatis. Conditions: M. smegmatis NfnB-overproducing mutant. An excerpt:
A second resistance mechanism to BTZ043 has been described in Mycobacterium smegmatis due to overproduction of the nitroreductase NfnB (Manina, G., et al. Mol Microbiol 2010. epub 2010/07/14).

The mark [8] stands for this setting: 1 μg/mL with 0.1 mg microsomes, HPLC.

Values after ≈ are worked out from the molar mass of the structure shown.

In the case of `NNC(=O)c1ccncc1` [Izoniazid, Isoniazid, reference compound], in data set [1], the “Log of CFU lungs” value is 4.34; the “Medium longevity (days) M ± SEM” value is “Alive at sacrifice”; the “Result of treatment, macroscopic condition of the lungs” value (from here on “Result of treatment”) was “marked improvement”.

Turning to `CCCN1CCN(c2nc(=O)c3cc(C(F)(F)F)cc([N+](=O)[O-])c3s2)CC1` [Compound 19, 2-(4-propylpiperazin-1-yl)-8-nitro-6-(tfluoromethyl)-4H-1,3-benzothiazin-4-one], the MIC (usually the least concentration at which growth counts as inhibited) in the data set on M. tuberculosis H37Rv was determined as 0.0037 µg/mL (≈ 0.00919 µM). For the same compound, in the data set on M. smegmatis, the MIC was no more than 0.19 µg/mL. For the same compound, the MIC in data set [2] came to 0.25 µg/mL (≈ 0.621 µM). For the same compound, in data set [1], the “Log of CFU lungs” value came out at 4.63; the “Medium longevity (days) M ± SEM” value was “Alive at sacrifice”; the “Result of treatment” value was “marked improvement”.

In the case of `O=c1nc(N2CCN(CC3CCCCC3)CC2)sc2c([N+](=O)[O-])cc(C(F)(F)F)cc12` [Compound 2, 2-[4-(cyclohexylmethyl)piperazin-1-yl]-8-nitro-6-(trifluoromethyl)-4H-1,3-benzothiazin-4-one], in the data set with M. tuberculosis H37Rv, the MIC is no more than 0.00019 µg/mL and the “MIC used for the selectivity index” value was 0.001 µg/mL. For the same compound, in the data set on M. smegmatis, the MIC was no more than 0.17 µg/mL. The “TC50 against A549 cells” value in the data set with A549 cells was 73.2 µg/mL (≈ 160 µM). Also, in the data set on HepG2 cells, the “TC50 against HepG2 cells” value stood at 66.7 µg/mL (≈ 146 µM). The LD50 (usually the dose at which mortality reaches 50%) at 7 days in data set [3] was greater than 2000 mg/kg. Besides, the “Compound remained in simulated gastric fluid” value in data set [4] was 67%. Further, in [5] (setting [8]), the “Intrinsic Clearance (Clint), Human liver microsomes” value is 23.9 μL/min/mg of protein and the “Intrinsic Clearance (Clint), Mouse liver microsomes” value is 20.9 μL/min/mg of protein. In “in vitro”, the half-life (usually the time needed for the level to fall by half in the phase considered) was greater than 1 h. Besides, in data set [1], the “Log of CFU lungs” value worked out at 4.30; the “Medium longevity (days) M ± SEM” value is “Alive at sacrifice”; the “Result of treatment” value is listed as “marked improvement”. Moreover, the “Reduction of the CFU load in the lungs and spleens compared to treatment with BTZ043” value in data set [6] is listed as “significantly more efficacious”.

As to `O=c1nc(N2CCN(CCCOc3ccc(F)cc3)CC2)sc2c([N+](=O)[O-])cc(C(F)(F)F)cc12` [Compound 18, 2-{4-[3-(4-fluorophenoxy)propyl]piperazin-1-yl}-8-nitro-6-(trifluoromethyl)-4H-1,3-benzothiazin-4-one], the MIC was no more than 0.0019 µg/mL with M. tuberculosis H37Rv, no more than 0.0019 µg/mL in the data set on M. smegmatis and 0.25 µg/mL (≈ 0.488 µM) in data set [2]. Also, the LD50 at 7 days in [3] is greater than 2000 mg/kg.

As to `NC(=O)N1c2ccccc2C=Cc2ccccc21` [Carbamazepine], the “Intrinsic Clearance (Clint), Human liver microsomes” value in data set [5] (human, microsomes) was 0.6 μL/min/mg of protein. Moreover, in [5] (mouse, microsomes), the “Intrinsic Clearance (Clint), Mouse liver microsomes” value is 1.1 μL/min/mg of protein.

Regarding `CCC(C)N1CCN(c2nc(=O)c3cc(C(F)(F)F)cc([N+](=O)[O-])c3s2)CC1` (stereo not drawn) [Compound 5, 2-(4-sec-butylpiperazin-1-yl)-8-nitro-6-(trifluoromethyl)-4H-1,3-benzothiazin-4-one], the melting point (in general, the temperature of the solid-liquid transition) lay within 127 to 128 °C. In addition, the MIC in the data set with M. tuberculosis H37Rv came out at 0.00037 µg/mL (≈ 0.000889 µM). Further, the MIC in the data set on M. smegmatis is no more than 0.0019 µg/mL. Further, the minimal inhibitory concentration (MIC) in [2] was 0.062 µg/mL (≈ 0.149 µM).

In turn, `O=c1nc(N2CCN(CCCC3CCCCC3)CC2)sc2c([N+](=O)[O-])cc(C(F)(F)F)cc12` [Compound 14, 2-[4-(3-cyclohexylpropyl)piperazin-1-yl]-8-nitro-6-(trifluoromethyl)-4H-1,3-benzothiazin-4-one] registered a melting point of 145 to 147 °C. For the same compound, the MIC in the data set on M. tuberculosis H37Rv is no more than 0.0019 µg/mL. The MIC with M. smegmatis was no more than 0.0019 µg/mL. In [2], the MIC was 0.75 µg/mL (≈ 1.55 µM).

In turn, `CCCC(C)N1CCN(c2nc(=O)c3cc(C(F)(F)F)cc([N+](=O)[O-])c3s2)CC1` (stereo not drawn) [Compound 7, 2-[4-(1-methylbutyl)piperazin-1-yl]-8-nitro-6-(trifluoromethyl)-4H-1,3-benzothiazin-4-one] had a melting point of 132 to 133 °C. Also, the minimum inhibitory concentration (MIC) in the data set on M. tuberculosis H37Rv is no more than 0.00019 µg/mL. Besides, the MIC with M. smegmatis is no more than 0.0019 µg/mL. Also, the MIC in data set [2] worked out at 0.125 µg/mL (≈ 0.29 µM).

In turn, `O=c1nc(N2CCN(CCCC3(c4ccc(F)cc4)OCCO3)CC2)sc2c([N+](=O)[O-])cc(C(F)(F)F)cc12` [Compound 17, 2-(4-{3-[2-(4-fluorophenyl)-1,3-dioxolan-2-yl]propyl}piperazin-1-yl)-8-nitro-6-(trifluoromethyl)-4H-1,3-benzothiazin-4-one] gave a melting point of 152 to 154 °C. Moreover, the MIC in the data set with M. tuberculosis H37Rv came out at 0.0375 µg/mL (≈ 0.066 µM). For the same compound, the MIC in the data set on M. smegmatis was 0.00375 µg/mL (≈ 0.0066 µM). Besides, the MIC in [2] turned out to be 0.25 µg/mL (≈ 0.44 µM).

`O=c1nc(N2CCN(CCCC3CCCCC3)CC2)sc2c([N+](=O)[O-])cc(Cl)cc12` [Compound 21, 6-chloro-2-[4-(3-cyclohexylpropyl)piperazin-1-yl]-8-nitro-4H-1,3-benzothiazin-4-one] came in with a melting point of 194 to 195 °C. In the data set on M. tuberculosis H37Rv, the MIC is no more than 0.0019 µg/mL. In the data set with M. smegmatis, the MIC is no more than 0.0019 µg/mL. In data set [2], the MIC worked out at 0.062 µg/mL (≈ 0.137 µM).

As to `CCCCCCCN1CCN(c2nc(=O)c3cc(C(F)(F)F)cc([N+](=O)[O-])c3s2)CC1` [Compound 8, 2-(4-heptylpiperazin-1-yl)-8-nitro-6-(trifluoromethyl)-4H-1,3-benzothiazin-4-one], the melting point was 125 to 127 °C. Besides, the MIC with M. tuberculosis H37Rv is no more than 0.00019 µg/mL. Also, in the data set on M. smegmatis, the MIC was no more than 0.0019 µg/mL. Besides, the MIC in [2] came to 0.125 µg/mL (≈ 0.273 µM). The “Reduction of the CFU load in the lungs and spleens compared to treatment with BTZ043” value in data set [6] was “significantly more efficacious”.

Take `CC(C)CN1CCN(c2nc(=O)c3cc(C(F)(F)F)cc([N+](=O)[O-])c3s2)CC1` [Compound 4]: the melting point lay within 150 to 153 °C. Further, the MIC in the data set on M. tuberculosis H37Rv is no more than 0.0019 µg/mL. Moreover, the MIC in the data set on M. smegmatis is no more than 0.0019 µg/mL. For the same compound, in data set [2], the MIC stood at 0.031 µg/mL (≈ 0.0744 µM).

Take `C[C@H]1COC2(CCN(c3nc(=O)c4cc(C(F)(F)F)cc([N+](=O)[O-])c4s3)CC2)O1` [BTZ043, 2-[(2S)-2-methyl-1,4-dioxa-8-azaspiro[4.5]dec-8-yl]-8-nitro-6-(trifluoromethyl)-4H-1,3-benzothia-zin-4-one, reference compound]: the “MIC used for the selectivity index” value in the data set with M. tuberculosis H37Rv came to 0.002 µg/mL. The “TC50 against A549 cells” value with A549 cells was 16.3 µg/mL (≈ 37.8 µM). The “TC50 against HepG2 cells” value in the data set with HepG2 cells worked out at 6.3 µg/mL (≈ 14.6 µM). In data set [5] (setting [8]), the “Intrinsic Clearance (Clint), Human liver microsomes” value was 16.2 μL/min/mg of protein and the “Intrinsic Clearance (Clint), Mouse liver microsomes” value is listed as 10.3 μL/min/mg of protein. Moreover, the “Increase in the MIC for MN39 relative to the wild type parental strain” value in [7] came to 6 fold. Moreover, in [1], the “Log of CFU lungs” value came to 4.78; the “Medium longevity (days) M ± SEM” value was “Alive at sacrifice”; the “Result of treatment” value was “marked improvement”. Besides, the “Efficacy in reducing CFU compared to INH” value in [6] (INH 25 mg/kg) is “slightly inferior to INH”.

Consider `O=c1nc(N2CCN(CCOCc3ccccc3)CC2)sc2c([N+](=O)[O-])cc(C(F)(F)F)cc12` [Compound 16, 2-{4-[2-(benzyloxy)ethyl]piperazin-1-yl}-8-nitro-6-(trifluoromethyl)-4H-1,3-benzothiazin-4-one], for which the melting point lay within 117 to 119 °C. Besides, in the data set with M. tuberculosis H37Rv, the MIC is 0.019 µg/mL (≈ 0.0384 µM). The MIC in the data set on M. smegmatis is 0.031 µg/mL (≈ 0.0627 µM). In data set [2], the MIC is less than 0.5 µg/mL.
